Measurements reported in patent publication US20110237629A1, “AMINO ACID ESTER PRODRUGS AND THE USE THEREOF” (Bayer Schering Pharma Aktiengesellschaft, priority 2008, published 2011).
Where a name gives a salt, the structure may show the parent alone.

Experiments:
[1] = i.v. pharmacokinetics in Wistar rats; assay type: in vivo; details: male Wistar rats, i.v. bolus, first measurement point
Procedure: On the day before administration of the substance, a catheter for obtaining blood is implanted in the jugular vein of the experimental animals (male Wistar rats, body weight 200-250 g) under Isofluran® anesthesia. On the day of the experiment, a defined dose of the test substance is administered as solution into the tail vein using a Hamilton® glass syringe (bolus administration, duration of administration <10 s). Blood samples (8-12 time points) are taken through the catheter sequentially over the course of 24 h after administration of the substance. Plasma is obtained by centrifuging the samples in heparinized tubes. Acetonitrile is added to a defined plasma volume per time point to precipitate proteins. After centrifugation, test substance and, where appropriate, known cleavage products of the test substance in the supernatant are determined quantitatively using a suitable LC/MS-MS method. […] Only the active ingredient (example 8A) was detectable up to the 8-hour time point too.

[2] = Stability in buffer at various pH values; assay type: physicochemical
Procedure: 0.3 mg of the test substance is weighed into a 2 ml HPLC vial and 0.5 ml of acetonitrile or acetonitrile/DMSO (9:1) is added. The substance is dissolved by putting the sample vessel in an ultrasonic bath for about 10 seconds. Then 0.5 ml of the respective buffer solution is added, and the sample is again treated in the ultrasonic bath.
(Buffer) solutions employed:
pH 4: 1 liter of Millipore water is adjusted to pH 4.0 with 1 N hydrochloric acid;
pH 5: 0.096 mol of citric acid and 0.2 mol of sodium hydroxide ad 1 liter of water;
pH 7.4: 90.0 g of sodium chloride, 13.61 g of potassium dihydrogen phosphate and 83.35 g of 1 N sodium hydroxide solution are made up to 1 liter with water; this solution is then further diluted 1:10 with Millipore water.
pH 8: 0.013 mol of borax and 0.021 mol of hydrochloric acid ad 1 liter of water.
5 μl portions of the test solution are analyzed by HPLC for their content of unchanged test substance, and of basic mother substance of the formula (A) formed, every hour over a period of 24 hours at 37° C. The percentage areas of the appropriate peaks are used for quantification.
HPLC method for example 1:
(§1) Agilent 1100 with DAD (G1315B), binary pump (G1312A), autosampler (G1329A), column oven (G1316A), thermostat (G1330B); column: Kromasil 100 C18, 125 mm×4 mm, 5 μm; column temperature: 30° C.; eluent A: water+5 ml perchloric acid/liter, eluent B: acetonitrile; gradient: 0 min 90% A→2.0 min 70% A→18.0 min 70% A 20.0 min 10% A→21.0 min 10% A→23.0 min 90% A→26.0 min 90% A; flow rate: 2.0 ml/min;
HPLC method for example 3:
as §1, with “(G1314A),” for “(G1315B),”, “(G1330A);” for “(G1330B);”, “64%” for “70%”, “64% A→20.0” for “70% A 20.0”, “ml/min UV detection: 294 nm.” for “ml/min;”
HPLC method for example 11:
as §1, with “ml of” for “ml”, “64%” for “70%”, “64% A→20.0” for “70% A 20.0”, “ml/min; UV detection: 294 nm.” for “ml/min;”
HPLC method for example 14:
Agilent 1100 with DAD (G1315B), binary pump (G1312A), autosampler (G1329A), column oven (G1316A), thermostat (G1330B); column: Kromasil 100 C18, 250 mm×4 mm, 5 μm; column temperature: 30° C.; eluent A: water+5 ml of perchloric acid/liter, eluent B: acetonitrile; gradient: 0 min 90% A→7.0 min 52% A→18.0 min 52% A→20.0 min 10% A→21.0 min 10% A→23.0 min 90% A -4 26.0 min 90% A; flow rate: 2.0 ml/min; UV detection: 288 nm.
HPLC method for example 18:
Agilent 1100 with DAD (G1315A), binary pump (G1312A), autosampler (G1329A), column oven (G1316A), thermostat (G1330A); column: Kromasil 100 C18, 125 mm×4 mm, 5 μm; column temperature: 30° C.; eluent A: water+5 ml of perchloric acid/liter, eluent B: acetonitrile; gradient: 0 min 90% A→6.0 min 61% A→18.0 min 61% A→20.0 min 10% A→21.0 min 10% A→23.0 min 90% A→26.0 min 90% A; flow rate: 2.0 ml/min; UV detection: 294 nm.
The ratios of the peak areas (F) at the respective time points in relation to the peak areas at the starting time are shown in Table 3 for representative exemplary embodiments: […]

[3] = Determination of the solubility (suspension shaken 24 h at room temperature, HPLC of supernatant); assay type: physicochemical; details: thermodynamic from solid
Procedure: The test substance is suspended in water or dilute hydrochloric acid (pH 4) or in 5% strength aqueous dextrose solution. This suspension is shaken at room temperature for 24 h. After ultracentrifugation at 224 000 g for 30 min, the supernatant is diluted with DMSO and analysed by HPLC. A two-point calibration plot of the test compound in DMSO is used for quantification.
Agilent 1100 with DAD (G1315A), quat. Pump (G1311A), autosampler CTC HTS PAL, degasser (G1322A) and column thermostat (G1316A); column: Phenomenex Gemini C18, 5 μm, 50 mm×2 mm; temperature: 40° C.; eluent A: water/phosphoric acid pH 2, eluent B: acetonitrile; flow rate: 0.7 ml/min; gradient: 0-0.5 min 85% A, 15% B; ramp 0.5-3 min 10% A, 90% B; 3-3.5 min 10% A, 90% B; ramp 3.5-4 min 85% A, 15% B; 4-5 min 85% A, 15% B.
Agilent 1100 with DAD (G1315A), quat. pump (G1311A), autosampler CTC HTS PAL, degasser (G1322A) and column thermostat (G1316A); column: VDSoptilab Kromasil 100 C18, 3.5 μm, 60 mm×2.1 mm; temperature: 30° C.; eluent A: water+5 ml of perchloric acid/liter, eluent B: acetonitrile; flow rate: 0.75 ml/min; gradient: 0-0.5 min 98% A, 2% B; ramp 0.5-4.5 min 10% A, 90% B; 4.5-6 min 10% A, 90% B; ramp 6.5-6.7 min 98% A, 2% B; 6.7-7.5 min 98% A, 2% B.
The solubilities of representative exemplary embodiments in dilute hydrochloric acid (pH 4) are shown in Table1: […]

detectability of the test substance (prodrug) in plasma after i.v. administration [1]: no longer detectable
% test substance after 4 h [F(t = 4 h) × 100/F(t = 0 h)] ([2]; pH 4, 37° C.): 99%
% test substance after 24 h [F(t = 24 h) × 100/F(t = 0 h)] ([2]; pH 4, 37° C.): 98%
% test substance after 4 h [F(t = 4 h) × 100/F(t = 0 h)] ([2]; pH 7.4, 37° C.): 90%
% test substance after 24 h [F(t = 24 h) × 100/F(t = 0 h)] ([2]; pH 7.4, 37° C.): 53%
solubility at 24 h ([3]; aqueous buffer, dilute hydrochloric acid (pH 4)): > 500 µg/mL
solubility at 24 h ([3]; saline or isotonic, 5% strength aqueous dextrose solution): > 500 µg/mL
SMILES: C[C@H](N)C(=O)OC[C@H](COc1ccc(-c2c(C#N)c(N)nc(SCc3coc(-c4ccc(Cl)cc4)n3)c2C#N)cc1)OC(=O)[C@H](C)N [Example 1, (2S)-3-{4-[2-Amino-6-({[2-(4-chlorophenyl)-1,3-oxazol-4-yl]methyl}sulfanyl)-3,5-dicyanopyridin-4-yl]phenoxy}propane-1,2-diyl(2S,2′S)-bis(2-aminopropanoate)dihydrochloride]
